Measured values reported in the NIST ThermoML archive (doi:10.1016/j.tca.2018.08.005).
± gives the expanded uncertainty stated by the source.

Experiments:
[1] = Crystal; DTA
[2] = Molar enthalpy of transition or fusion; details: Crystal; DSC

Normal melting temperature [1]: 35.00 ± 5 °C
Molar enthalpy of transition or fusion [2]: 18 ± 1.84 kcal/mol
Structure (SMILES): O.O.O.O.O.O.O.O.O.O.O=S(=O)([O-])[O-].[Na+].[Na+] [sodium sulfate decahydrate]
